Measurements reported in paper PMC3606118, “Salvianolic Acid A, a Novel Matrix Metalloproteinase-9 Inhibitor, Prevents Cardiac Remodeling in Spontaneously Hypertensive Rats” (PLoS ONE, 2013).
Like-named read-outs stand apart in the source and are kept apart here.

How the values were obtained:
[1] = test system: neonatal cardiac fibroblast; experiment: Soluble collagen secretion (picrosirius red assay); assay type: cell-based, Wistar rats; settings: 24 h, p<0.05
Description: (§1) Primary cardiac fibroblast was obtained from neonatal rats and National Institutes of Health (NIH) Guide for the Care and Use of Laboratory Animals was followed throughout. Wistar rats (2–4 day old) were sacrificed by cervical dislocation; ventricles were minced and digested with 0.1% trypsin at 37°C for 8 min. The liberated cells were collected by centrifugations; non-digested chunk materials were further digested in 0.1% trypsin for an additional 8 min. This digestion procedure was repeated 3–4 times. All the liberated cells were pelleted by centrifugation at 1,000 rpm for 10 min, re-suspended in DMEM containing 10% fetal bovine serum (FBS), and cultured in a 100-mm noncoated culture flask at 37°C with 5% CO2 for 2 h. Adherent cardiac fibroblasts were collected and maintained in DMEM supplemented with 10% FBS, 100 U/mL penicillin, 100 µg/mL streptomycin [12]. Cardiac fibroblasts were treated by vehicle (Con); 200 nmol/L MMP-9 CD (MMP-9); 200 nmol/L MMP-9 CD plus 1 µmol/L SalA [MMP-9/SalA(1)]; or 200 nmol/L MMP-9 CD plus 10 µmol/L SalA [MMP-9/SalA(10)] for the following research. […]
Soluble collagen secreted by neonatal cardiac fibroblast was measured using picrosirius red assay with minor modification, [15]. […] 200 µL solution was transferred to 96 well plate for measuring absorbance at 595 nm using a UV spectrophotometer (Tecan GENios, Austria).

[2] = test system: neonatal cardiac fibroblast; experiment: CCK-8 proliferation of neonatal cardiac fibroblast; assay type: cell-based, Wistar rats; settings: 10 µmol/L SalA with MMP-9 CD, 24 h
Description: Primary cardiac fibroblast was obtained from neonatal rats and National Institutes of Health (NIH) Guide for the Care and Use of Laboratory Animals was followed throughout. Wistar rats (2–4 day old) were sacrificed by cervical dislocation; ventricles were minced and digested with 0.1% trypsin at 37°C for 8 min. The liberated cells were collected by centrifugations; non-digested chunk materials were further digested in 0.1% trypsin for an additional 8 min. This digestion procedure was repeated 3–4 times. All the liberated cells were pelleted by centrifugation at 1,000 rpm for 10 min, re-suspended in DMEM containing 10% fetal bovine serum (FBS), and cultured in a 100-mm noncoated culture flask at 37°C with 5% CO2 for 2 h. Adherent cardiac fibroblasts were collected and maintained in DMEM supplemented with 10% FBS, 100 U/mL penicillin, 100 µg/mL streptomycin [12]. Cardiac fibroblasts were treated by vehicle (Con); 200 nmol/L MMP-9 CD (MMP-9); 200 nmol/L MMP-9 CD plus 1 µmol/L SalA [MMP-9/SalA(1)]; or 200 nmol/L MMP-9 CD plus 10 µmol/L SalA [MMP-9/SalA(10)] for the following research. All the detections were conducted after 24 h treatment.
Cell proliferation assay was performed using Cell Counting Kit (CCK-8 kit, Dojindo Laboratory, Japan) as described previously. Absorbance was detected at 450 nm (reference 650 nm) using a microplate reader (Tecan GENios, Austria).

[3] = test system: spontaneously hypertensive rats (SHR); assay type: in vivo; settings: for HW/BW (heart weight divided by body weight): 0 mg 4.37±0.08; for collagen volume fraction: 0 mg/kg 4.61±0.31
Description: 2-month old male SHR rats were given rodent chow containing 8% NaCl 4 weeks before SaA treatment to the end of the experiment. Rats were divided into four groups (20 per group) and were injected intraperitoneally with saline or SalA everyday at the indicated dose for 4 weeks. The four groups were named as SalA (0 mg/kg), SalA (2.5 mg/kg), SalA (5 mg/kg), SalA (10 mg/kg) basing on the dose of SalA, respectively.
After ketamine-xylazine anesthesia (ketamine: xylazine, 60∶5 mg/kg, intramuscularly), heart, liver and kidney samples from experimental animals were fixed with 4% neutral-buffered paraformaldehyde for 24 h. Specimens were paraffin-embedded, sliced at 5 µm, and stained with haematoxylin and eosin. After staining, the sections were rinsed with distilled water, dehydrated, and mounted with Permount. Photomicrographs were taken using an Olympus BX51 microscope plus Olympus DP71 CCD camera (Olympus Corporation). Software Image-Pro Plus version 6.0 was used and approximately 150 cells per heart were measured to determine the average myocyte circumference. Paraffin-embedded slices were also stained with 0.1% picric sirius red (Sigma-Aldrich Inc, St Louis, USA) for fibrillar collagen. Collagen volume fraction (CVF) was expressed as a percentage of the total area of the field occupied by collagen staining.

[4] = molecular target: T1, MMP-2 (Rattus norvegicus, UniProt P33436); experiment: In-gel gelatin zymography of SHR heart, MMP-2; assay type: in vivo, SHR rats; settings: SalA i.p. everyday for 4 weeks
T1 construct: twenty µg protein from tissue; from tissue; host or cells: heart of spontaneously hypertensive rats (SHR)
T1 sequence (P33436 110-662): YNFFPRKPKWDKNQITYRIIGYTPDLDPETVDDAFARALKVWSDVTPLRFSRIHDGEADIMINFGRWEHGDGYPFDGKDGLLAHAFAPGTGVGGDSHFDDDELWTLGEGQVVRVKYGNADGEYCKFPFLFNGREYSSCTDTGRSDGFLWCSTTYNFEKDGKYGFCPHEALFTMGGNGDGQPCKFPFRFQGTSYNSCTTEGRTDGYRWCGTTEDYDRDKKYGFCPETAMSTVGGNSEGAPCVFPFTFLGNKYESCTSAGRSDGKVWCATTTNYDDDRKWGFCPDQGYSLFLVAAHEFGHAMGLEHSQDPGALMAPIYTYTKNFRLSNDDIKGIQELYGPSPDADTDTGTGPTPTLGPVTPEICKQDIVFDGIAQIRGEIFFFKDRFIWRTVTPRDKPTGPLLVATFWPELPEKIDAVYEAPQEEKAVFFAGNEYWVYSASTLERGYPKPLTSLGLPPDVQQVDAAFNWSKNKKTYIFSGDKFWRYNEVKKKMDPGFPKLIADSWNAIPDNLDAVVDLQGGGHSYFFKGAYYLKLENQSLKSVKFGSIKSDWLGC

[5] = test system: neonatal cardiac fibroblast; experiment: Transwell migration of neonatal cardiac fibroblast induced by MMP-9 CD; assay type: cell-based, Wistar rats; settings: 1 µmol/L SalA, 200 nmol/L MMP-9 CD, 24 h (MMP-9 alone 85.2±12.4, Con 25.9±2.1)
Description: as §1, with “[12].” for “[12]. Cardiac fibroblasts were treated by vehicle (Con); 200 nmol/L MMP-9 CD (MMP-9); 200 nmol/L MMP-9 CD plus 1 µmol/L SalA [MMP-9/SalA(1)]; or 200 nmol/L MMP-9 CD plus 10 µmol/L SalA [MMP-9/SalA(10)] for the following research.”
Transwell assay was employed to evaluate effects of SalA on neonatal cardiac fibroblast migration induced by MMP-9 CD. […] After incubating for 24 h, migrated cells (in the lower side of migration chamber) were stained with 0.1% crystal violet and counted with a microscope at 200 X magnification. Five to six view fields were counted on each membrane. Migration is expressed as the mean value of total number of migrated cells per field.

[6] = 2.5 mg/kg i.p. everyday 4 weeks

Question: What does the source list for `O=C(/C=C/c1ccc(O)c(O)c1/C=C/c1ccc(O)c(O)c1)O[C@H](Cc1ccc(O)c(O)c1)C(=O)O` [SalA, salvianolic acid A]?
Answer: net collagen production in the presence of MMP-9 CD ([1]; 1 µmol/L SalA): significantly attenuated; net collagen production in the presence of MMP-9 CD ([1]; 10 µmol/L SalA): significantly attenuated; proliferation of neonatal cardiac fibroblast [2]: considerable promotion; HW/BW (heart weight divided by body weight) [3, 6]: 4.36 ± 0.05 mg/g; collagen volume fraction [3, 6]: 4.48±0.29%; HW/BW (heart weight divided by body weight) ([3]; 5 mg/kg i.p. everyday 4 weeks): 4.37 ± 0.08 mg/g; collagen volume fraction ([3]; 5 mg/kg i.p. everyday 4 weeks): 3.04±0.16%; HW/BW (heart weight divided by body weight) ([3]; 10 mg/kg i.p. everyday 4 weeks, p<0.05): 4.10 ± 0.08 mg/g; collagen volume fraction ([3]; 10 mg/kg i.p. everyday 4 weeks): 2.58±0.17%; cardiomyocyte size (myocyte circumference) ([3]; SalA treatment versus SHR, p<0.001): significantly down-regulated; MMP-2 activity in heart of SHRs [4]: no regulation; migrated cells [5]: 45.3±9.1 cells per field
